Patent publication US8222278B2, “Treatment of attention-deficit/hyperactivity disorder” (Abbott Laboratories, priority 2008, dated 2012)

Legend:
[1] = tested on: adults with ADHD; assay: Study A: ABT-894 Adult ADHD Dose-Ranging crossover clinical study, efficacy rating scales; assay type: in vivo, human; conditions: Atomoxetine 40 mg BID
Experimental: (§1) A clinical study (Study A) was conducted to assess the safety and efficacy of ABT-894 compared to placebo in adults with ADHD and to evaluate the dose-response relationship.
A total of 243 subjects aged 18 to 60 years old meeting DSM-IV-TR criteria for ADHD were randomized across the 5 dose groups. Male or female patients were included. […] The disposition of the study subjects is further discussed with the study results below.
(§2) Subjects in each dose group received, in random order, both ABT-894 and placebo according to a 2×2 crossover design. Each treatment period was 4 weeks separated by a 2-week washout period.
Each site was assigned to one of two cohorts (Cohort A or Cohort B) in approximately a 3:2 ratio. Subjects in Cohort A were randomized in equal proportions to one of 6 treatment sequences in 3 dose groups, and subjects in Cohort B were randomized in equal proportions to one of 4 treatment sequences in 2 dose groups, as shown in Table 1. Within each dose group subjects received either ABT-894 or atomoxetine in Period 1 and placebo in Period 2, or placebo in Period 1 and ABT-894 or atomoxetine in Period 2.
The study medication was dispensed in the form of a capsule. Each capsule contained ABT-894, atomoxetine, or placebo. The capsules were made to look identical.
The primary efficacy endpoint was the Conners' Adult ADHD Rating Scale—Investigator Rated (CAARS:Inv) Total Score (18 items) at the final evaluation of each 4-week treatment period. The CAARS:Inv was assessed at baseline and Days 7. 14. 21, and 28 of each period. Each CAARS:Inv item was rated on a 4-point scale of frequency of occurrence (0=not at all, never; 3=very much. very frequently) during the previous 7 days.
(§3) Secondary efficacy endpoints included the CAARS:Inv Inattentive and Hyperactive/Impulsive Subscale Scores, Clinical Global Impression-ADHD-Severity Scale (CGI-ADHD-S). Adult ADHD Investigator Symptom Report Scale (AISRS), including total and subscales, and the Self-rated Connors Adult ADHD Rating Scale (CAARS-Self). Health outcomes including the Adult ADHD Quality of Life Scale (AAQoL) and Work Productivity and Activity Impairment Questionnaire (WPAI) were used to evaluate the validity of these scales in this study population for use in subsequent clinical trials.
The primary analysis was performed on each dose group separately according to the Statistical Analysis Plan (SAP). The primary statistical model that was used for analyzing the primary efficacy variable, the CAARS:INV total score, and all other secondary efficacy variables was determined by a SAP specified testing procedure. The comparability between two sequences for a given dose group with respect to the difference between period-specific baselines was tested using a one-way ANCOVA with the term of treatment and the Period I baseline as the covariate at the significance level of 0.10. The equal residual effect from Period I to Period II between two different sequences for a given dose group was tested using a standard model for cross-over data analysis, Grizzle model, on the term of “sequence” at the significance level of 0.10.
After the study blind was broken, across 5 dose groups. all the tests accepted the null hypothesis that there was no statistically significant treatment effect for the differences between the period-specific baselines. The tests also accepted the null hypothesis that there was no period residual effect in any of the dose groups. Accordingly, the Grizzle model was used as the primary analysis model to analyze treatment group difference for CAARS:INV total score at Day 28 for each dose group. The Grizzle Model was carried out by SAS PROC Mixed with the terms of study center. sequence, subjects within sequence, period, treatment, as well as period-specific baselines as covariates.
The primary efficacy dataset included all subjects who completed both periods of the study (completers dataset). […]

[2] = tested on: adults with ADHD; assay: Study A: patient-reported health outcomes (AAQoL, WPAI); assay type: in vivo, human; design: WPAI Absenteeism (employed), Mean Diff. / WPAI Impaired Work Effectiveness (employed), Mean Diff. / AAQoL Total, Mean Diff. / WPAI Overall Activity Impairment (all), Mean Diff. / WPAI Overall Work Impairment (employed), Mean Diff.: scale not given here; conditions: ATX 40 mg BID
Experimental: as §1, §2, §3

[3] = tested on: adults with ADHD; assay: Study A: weight and vital signs; assay type: in vivo, human; conditions: Atomoxetine 40 mg BID, final evaluation (LOCF)
Experimental: The treatment group differences in vital signs were analyzed using a Grizzle Model similar to the model used for the efficacy analyses with the exclusion of period-specific baselines.

[4] = tested on: adults with ADHD; assay: Study A: treatment-emergent adverse events (safety dataset); conditions: Atomoxetine 40 mg BID, N = 50
Experimental: During each visit, blood pressure, heart rate, weight, medication accountability and tolerability, and adverse effects were assessed.
The safety dataset consisted of all subjects who took at least one dose of study drug. The reasons for discontinuation and the treatment-emergent adverse events were summarized by the treatment under which the discontinuation or event was reported.
Treatment-emergent adverse events were those that began or worsened following the first dose of study drug in Period 1. Adverse event monitoring was conducted at each study visit and until 30 days following discontinuation of study drug. Other routine safety assessments included vital signs, electrocardiograms, physical examinations, brief neurological examinations and laboratory tests.

## CNCC[C@@H](Oc1ccccc1C)c1ccccc1 [Atomoxetine, (3R)-N-methyl-3-(2-methylphenoxy)-3-phenyl-propan-1-amine, reference compound]
[1]; day 28, completers
  AISRS Hyperactivity Score, mean difference from placebo: −3.29 (−5.4, −1.2)
  AISRS Inattention Score, mean difference from placebo: −3.81 (−6.1, −1.6)
  AISRS Total Score, mean difference from placebo: −7.18 (−11.5, −2.9)
  CAARS:Self ADHD Index, mean difference from placebo: −3.08 (−4.8, −1.3)
  CAARS:Self Hyperactivity Score, mean difference from placebo: −1.43 (−2.4, −0.5)
  CAARS:Self Impulsivity Score, mean difference from placebo: −1.17 (−1.9, −0.5)
  CAARS:Self Inattention/Memory Score, mean difference from placebo: −1.56 (−2.5, −0.6)
  CAARS:Self Problem with Self-concept Score, mean difference from placebo: −0.70 (−1.5, 0.1)
  CAARS:Self Total Score, mean difference from placebo: −7.12 (−10.9, −3.3)
  CGI-ADHD-S, mean difference from placebo: −0.45 (−0.8, −0.1)
[1]; day 28, completers N = 40
  CAARS:Inv ADHD Index, mean difference from placebo: −3.00 (−4.9, −1.1)
  CAARS:Inv Hyperactive/Impulsive subscale score, mean difference from placebo: −1.43 (−2.4, −0.4)
  CAARS:Inv Inattentive subscale score, mean difference from placebo: −3.89 (−6.3. −1.5)
  CAARS:Inv Total Score, mean difference from placebo: −7.98 (−12.5. −3.5)
[2]; N 18
  WPAI Absenteeism (employed), Mean Diff.: 0.019
  WPAI Impaired Work Effectiveness (employed), Mean Diff.: −0.143
  WPAI Overall Work Impairment (employed), Mean Diff.: −0.12
[2]; N 36
  WPAI Overall Activity Impairment (all), Mean Diff.: −0.13
[2]; N 40
  AAQoL Total, Mean Diff.: 7.23
[3]
  Diastolic BP, mean difference from placebo: 0.72 mm Hg
  Pulse, mean difference from placebo: 4.74 bpm
  Systolic BP, mean difference from placebo: 1.16 mm Hg
  Weight, mean difference from placebo: -0.73 kg
[4]
  Any Adverse Event, % of subjects: (82.0) %
  Any Adverse Event, number of subjects: 41 subjects
  Decreased appetite, % of subjects: (12.0) %
  Decreased appetite, number of subjects: 6 subjects
  Diarrhea, % of subjects: (2.0) %
  Diarrhea, number of subjects: 1 subjects
  Dizziness, % of subjects: (8.0) %
  Dizziness, number of subjects: 4 subjects
  Dry mouth, % of subjects: (6.0) %
  Dry mouth, number of subjects: 3 subjects
  Fatigue, % of subjects: (12.0) %
  Fatigue, number of subjects: 6 subjects
  Feeling hot and cold, % of subjects: (6.0) %
  Feeling hot and cold, number of subjects: 3 subjects
  Feeling jittery, % of subjects: (6.0) %
  Feeling jittery, number of subjects: 3 subjects
  Headache, % of subjects: (14.0) %
  Headache, number of subjects: 7 subjects
  Influenza-like illness, % of subjects: (6.0) %
  Influenza-like illness, number of subjects: 3 subjects
  Lethargy, % of subjects: (6.0) %
  Lethargy, number of subjects: 3 subjects
  Muscle Strain, % of subjects: (0) %
  Muscle Strain, number of subjects: 0 subjects
  Nasal congestion, % of subjects: (4.0) %
  Nasal congestion, number of subjects: 2 subjects
  Nausea, % of subjects: (20.0) %
  Nausea, number of subjects: 10 subjects
  Parathesia, % of subjects: (10.0) %
  Parathesia, number of subjects: 5 subjects
  Sleep disturbances, % of subjects: (16.0) %
  Sleep disturbances, number of subjects: 8 subjects
  Somnolence, % of subjects: (8.0) %
  Somnolence, number of subjects: 4 subjects
  Upper RTI, % of subjects: (4.0) %
  Upper RTI, number of subjects: 2 subjects
  Vomiting, % of subjects: (2.0) %
  Vomiting, number of subjects: 1 subjects
